# Read-outs that look alike come from different tables or passages of the source.
# Experiments:
# [1] = tested on: pCTD Ser5 in HCT116 cells; assay: Phospho-carboxyl terminal domain (Ser5) p-CTD (S5) cell based Acumen assay; details: read-out: Relative IC50 for pCTD Ser5
# Procedure: HCT116 cells (ATCC CCL-247) are cultured in McCoy’s 5A Medium Modified media supplemented with 10% FBS, 1% NaPyr, and 1% Pen/Strep and plated (prior to becoming 70% confluent) in 96-well flat-bottom plates at a density of 5,000 cells per well in 100 µL volume. The cells are incubated overnight in a cell culture incubator (5% CO2, 95% Relative Humidity (RH), and 37° C.) and allowed to attach to the plate. The following morning, the cells are dosed with compounds. Compound inhibitors are solubilized at 60 µM in culture medium containing 0.6% DMSO. Subsequently compound serial dilutions (1:3) are prepared over a 60 µM to 0.003 µM range. Cells are dosed with the addition of 50 µL from serial dilution plate to assay plate containing cell attached with 100 µL of media producing a final DMSO concentration of 0.2% with a final compound concentration dose range between 20 and 0.001 µM. For max point media containing 0.2% of DMSO is used and for min point, a reference compound diluted at 0.83 µM final concentration in the growth media containing 0.2% DMSO is used. After dosing with compounds, the cell plates are incubated at 37° C. and 5% CO2 for 4 hours. Growth media is removed carefully and the cells are fixed by adding 100 µL of 4% para-formaldehyde for 30 minutes at RT. Cell are washed once with PBS and incubated with 100 µL of cold MeOH for 15 minutes at RT for cell permeation. Again cells are washed twice with PBS (100 µL/each) and blocked with 100 µL/well of 1% BSA/PBS for 30 min at RT. 50 µL of 1:1000 primary antibody (Anti-phosphoCTD Ser5 Bethyl Laboratories cat# A300-655A) dilution in 1% BSA/PBS are added per well, the plates are sealed and incubated overnight at 4° C.
# The following day cells are washed three times with PBS (100 µL/well) and incubated with 50 µL/well of secondary antibody (1:2000 dilution, Goat anti-rabbit IgM ALEXA FLUOR™ 488) in PBS for 1 hourr at room temperature. After washing 3× with PBS (100 µL/well), 100 µL, of 50 µg/mL RNAase (Sigma) and 1:1000 propidium iodide dilution in PBS are added per well. Plates are sealed and incubated for 1 hour at RT on the bench (preserved from light). Plates are analyzed on Acumen on FL2 (mean intensity), and FL3 (total intensity). Fluorescence plates are scanned with ACUMEN EXPLORER™ [Laser-scanning fluorescence microplate cytometer manufactured by TTP LABTECH LTD] to measure anti-phospho-carboxyl terminal domain at Serine 5 (pCTD). Image analysis is based on cellular fluorescent signals for identifying positive cells. pCTD (S5) positive cells are identified by mean intensity at 500-530 above the threshold. Total intensity at 575-640 from propidium iodide/DNA is used to identify individual cells. Assay output is % pCTD positive cells. The IC50 is determined by curve fitting to a four parameter logistic for each output using GENE DATA™.
# HCC1806 = assay: Cell proliferation assay (CELL TITER GLO), HCC1806; type: cell-based; details: Homo sapiens, 144 h; HCC1806 breast cancer, six days after compound addition
# Procedure: Cell lines are plated at the density 5000 cells per well in 100 µL per well growth medium into a white 96-well cell culture plate. See Table 1 for cell line and culture medium information. Plates are incubated at 37° C. and 5% CO2. The following day, a serial dilution of the test compound is prepared by diluting the compound 1:3 in DMSO for 10 points. The DMSO plate is 1000X the final concentration. In addition to the CDK7 inhibitor, a DMSO alone column is included as a maximum growth control and 10 µM staurosporine final column is included as a maximum growth inhibition control. A 10X dilution plate is then prepared by adding 2 µL per well from the 1000X DMSO plate to 198 µL per well of OMEM (Life Technologies, Carlsbad, CA, cat#31985-070). Cells are treated with indicated compound by adding 11 µL per well from the 10X OMEM plate to the cell plate containing 100 µL per well growth medium for a 1X final concentration. Plates are placed back into the incubator at 37° C. and 5% CO2. Six or seven days after compound addition, for HCC1806 or A2780 cells respectively, plates are removed from the incubator and allowed to equilibrate to RT. […] After 15 minute incubation on shaker, luminescence is read, 1 second per well, using a Wallac VICTOR2™. […]
# [2] = tested on: HCC1806 xenograft tumor model; assay: Xenograft tumor model; type: in vivo, female athymic nude mice; details: QDx28, HCC1806 (KMT2C)
# Procedure: The purpose of this assay is to measure reduction in tumor volume in response to the compound of Example 1. To evaluate in vivo efficacy of a test compound, multiple xenograft tumor models are utilized. Briefly, 2.5 × 10^6 tumor cells in a 1:1 MATRIGEL® mix (0.2 mL total volume) are injected subcutaneously into the female athymic nude mice (Envigo, Harlan Laboratories). After allowing tumors to reach a desired size of ~300-500 mm^3, animals are randomized into groups of 5 for efficacy studies. Test compound is administered via oral gavage (PO) at indicated doses and regimens. Tumor growth and body weight are monitored over time to evaluate efficacy and signs of toxicity.
# Test compound is formulated in 1% hydroxyethylcellulose, 0.25% polysorbate 80, 0.05% antifoam in purified water (HEC) and administered by oral gavage (final volume 0.2 mL) at the doses indicated in Table 2. A test compound is formulated on a weekly basis and stored at 4° C. Vehicles are administered to the control groups according the schedules used above using a volume of 0.2 mL per dose. Mice are dosed via oral gavage and tumor samples are collected at termination and stored at -80° C.
# Tumor size and body weight are recorded and analyzed bi-weekly.
# Delta T/C% is calculated when the endpoint tumor volume in a treated group is at or above baseline tumor volume. The formula is 100×(T-T0)/(C-C0). […]
"IC50 ([1]; Homo sapiens, HCT-116, 4 h) [nM]",IC50 ([1]; 4 hours) [nM],Structure (SMILES),further results
15.9,,"[2H]C([2H])=C([2H])C(=O)N1CCO[C@H](CN2CCC(Nc3cc(C(F)(F)F)cn4c(C(C)C)cnc34)CC2)C1 [Example 6, 2,3,3-trideuterio-1-[(2R)-2-[[4-[[3-isopropyl-6-(trifluoromethyl)imidazo[1,2-a]pyridin-8-yl]amino]-1-piperidyl]methyl]morpholin-4-yl]prop-2-en-1-one]",
161,,"C=CC(=O)N1CCO[C@H](CN2CCC(Nc3cc(C(C)F)cn4c(C(C)C)cnc34)CC2)C1 (single isomer, unassigned) [Example 1]",IC50 (HCC1806): 19.5 nM; Avg. ΔT/C ([2]; 10 mg/kg PO): 16.5%; Avg. ΔT/C ([2]; 20 mg/kg PO): -38.0%
,118,"C=CC(=O)N1CCO[C@H](CN2CCC(Nc3cc(C(C)O)cn4c(C(C)C)cnc34)CC2)C1 (single isomer, unassigned) [Example 5]",
71.7,,"[2H]CC([2H])(C)c1cnc2c(NC3CCN(C[C@@H]4CN(C(=O)C=C)CCO4)CC3)cc(C(F)(F)F)cn12 (mixture of isomers) [Example 7, 1-[(2R)-2-[[4-[[3-[rac-1,2-dideuterio-1-methyl-ethyl]-6-(trifluoromethyl)imidazo[1,2-a]pyridin-8-yl]amino]-1-piperidyl]methyl]morpholin-4-yl]prop-2-en-1-one]",
,162,"C=CC(=O)N1CCO[C@H](CN2CCC(Nc3cc(C(C)F)cn4c(C(C)C)cnc34)CC2)C1 (single isomer, unassigned) [Example 2]",
,55.1,"C=CC(=O)N1CCO[C@H](CN2CCC(Nc3cc(C(C)O)cn4c(C(C)C)cnc34)CC2)C1 (single isomer, unassigned) [Example 4]",

Structure (SMILES),"IC50 ([1]; Homo sapiens, HCT-116, 4 h) [nM]",IC50 ([1]; 4 hours) [nM],further results
"C=CC(=O)N1CCO[C@H](CN2CCC(Nc3cc(C(F)(F)F)cn4c(C(C)C)cnc34)CC2)C1 [Example 8, 1-[(2R)-2-[[4-[[3-isopropyl-6-(trifluoromethyl)imidazo[1,2-a]pyridin-8-yl]amino]-1-piperidyl]methyl]morpholin-4-yl]prop-2-en-1-one]",26.2,,

# — US20230203031A1, “COMPOUNDS USEFUL FOR INHIBITING CDK7” (Eli Lilly and Company, priority 2020, published 2023)
